From PubChem BioAssay AID489002 (NMMLSC, 2010)
Active and inactive are the calls of the source.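 How the source made its calls: active means combined score above 52 from an acceptable curve fit, favoring EC50 below 10 µM and curve height over 20%; inactive means the rest.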

Molecular target: ATP-dependent translocase ABCB1 (Homo sapiens) (UniProt P08183)
Test: ABCB1 efflux inhibition concentration-response, dose response, Jurkat-DNR cells, JC-1, flow cytometry, follow-up (AID 489002)
Conditions: JC-1 efflux; for inhibition: at 50 µM (top of the series)

Sequence of ATP-dependent translocase ABCB1 (Homo sapiens) (P08183 whole entry, looked up): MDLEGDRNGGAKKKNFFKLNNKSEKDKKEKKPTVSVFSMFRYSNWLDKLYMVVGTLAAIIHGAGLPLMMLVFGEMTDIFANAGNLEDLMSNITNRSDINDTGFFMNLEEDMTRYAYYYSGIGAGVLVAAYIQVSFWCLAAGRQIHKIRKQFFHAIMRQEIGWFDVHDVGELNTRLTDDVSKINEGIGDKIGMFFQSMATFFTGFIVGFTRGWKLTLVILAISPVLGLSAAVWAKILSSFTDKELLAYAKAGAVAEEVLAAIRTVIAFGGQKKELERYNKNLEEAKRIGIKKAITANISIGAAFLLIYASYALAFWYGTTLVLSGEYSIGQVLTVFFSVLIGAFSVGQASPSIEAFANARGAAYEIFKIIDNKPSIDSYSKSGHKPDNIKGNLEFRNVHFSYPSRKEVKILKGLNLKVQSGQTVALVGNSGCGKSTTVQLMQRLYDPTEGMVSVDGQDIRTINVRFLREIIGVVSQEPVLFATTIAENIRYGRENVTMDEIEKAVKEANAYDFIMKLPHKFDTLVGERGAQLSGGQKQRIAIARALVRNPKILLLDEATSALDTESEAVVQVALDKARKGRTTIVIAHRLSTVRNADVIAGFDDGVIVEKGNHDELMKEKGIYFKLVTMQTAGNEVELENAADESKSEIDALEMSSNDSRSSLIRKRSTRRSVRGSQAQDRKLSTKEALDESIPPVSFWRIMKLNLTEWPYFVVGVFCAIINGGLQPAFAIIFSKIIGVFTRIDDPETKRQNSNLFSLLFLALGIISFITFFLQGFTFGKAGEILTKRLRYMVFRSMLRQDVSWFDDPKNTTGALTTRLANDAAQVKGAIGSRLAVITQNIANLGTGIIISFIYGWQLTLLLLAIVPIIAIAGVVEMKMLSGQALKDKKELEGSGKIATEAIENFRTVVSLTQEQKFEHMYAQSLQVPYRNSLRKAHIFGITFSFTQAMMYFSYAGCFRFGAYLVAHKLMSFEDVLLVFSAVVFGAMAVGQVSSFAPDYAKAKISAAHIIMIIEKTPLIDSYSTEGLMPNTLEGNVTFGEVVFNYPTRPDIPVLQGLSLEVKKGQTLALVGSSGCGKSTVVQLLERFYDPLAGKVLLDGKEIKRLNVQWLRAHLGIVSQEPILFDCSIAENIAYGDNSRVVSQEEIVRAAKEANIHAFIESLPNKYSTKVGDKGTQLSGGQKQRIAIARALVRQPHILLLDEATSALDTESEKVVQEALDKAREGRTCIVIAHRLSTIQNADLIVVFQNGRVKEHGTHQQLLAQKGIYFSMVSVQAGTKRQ

O=C(c1ccoc1)N1CCN(c2cc(-c3ccco3)nc3cc(-c4ccco4)nn23)CC1
EC50: 2.03 µM

CC(C)(C)c1cc(N2CCN(C(=O)c3ccoc3)CC2)n2nc(-c3ccccc3)cc2n1
EC50: inactive

COc1cccc(-c2cc3nc(-c4ccccc4)cc(N4CCN(C(=O)c5ccoc5)CC4)n3n2)c1
EC50: 7.07 µM

O=C(c1ccoc1)N1CCN(c2cc(-c3cccs3)nc3cc(-c4ccccc4)nn23)CC1
EC50: 8.33 µM

O=C(c1ccoc1)N1CCN(c2cc(-c3cccc(F)c3)nc3cc(-c4ccccc4)nn23)CC1
EC50: inactive

Cc1cc(C(=O)N2CCN(c3cc(-c4ccco4)nc4cc(-c5ccccc5)nn34)CC2)c(C)o1
EC50: 8.68 µM

CC1CN(C(=O)OC(C)(C)C)CCN1c1cc(-c2ccco2)nc2cc(-c3ccccc3)nn12 (stereo not given)
EC50: inactive

c1ccc(CN2CCN(c3cc(-c4ccco4)nc4cc(-c5ccccc5)nn34)CC2)cc1
EC50: 3.84 µM

Cc1nc2cc(-c3cccc(Cl)c3)nn2c(N2CCN(C(=O)c3ccoc3)CC2)c1C
EC50: inactive

O=C(c1ccco1)N1CCN(c2c3c(nc4cc(-c5ccc(F)cc5)nn24)CCC3)CC1
EC50: 1.85 µM

CC(=O)N1CCN(c2cc(-c3ccco3)nc3cc(-c4ccccc4)nn23)CC1
EC50: 5.44 µM

COc1ccccc1-c1cc(N2CCN(C(=O)c3ccoc3)CC2)n2nc(-c3ccccc3)cc2n1
EC50: 15.3 µM

COC(=O)c1cccc(-c2cc(N3CCN(C(=O)c4ccoc4)CC3)n3nc(-c4cccc(OC)c4)cc3n2)c1
EC50: 2.97 µM

O=C(c1ccoc1)N1CCN(c2cc(-c3ccccc3)nc3cc(-c4ccncc4)nn23)CC1
EC50: 9.92 µM

Cc1nc2cc(-c3ccc(Br)cc3)nn2c(N2CCN(C(=O)c3ccoc3)CC2)c1C
EC50: inactive

O=C(c1ccoc1)N1CCN(c2cc(-c3ccoc3)nc3cc(-c4ccccc4)nn23)CC1
EC50: inactive

O=C(c1ccco1)N1CCN(c2cc(-c3ccco3)nc3cc(-c4ccccc4)nn23)CC1
EC50: 8.53 µM

COc1ccc(-c2cc3nc(C)c(C)c(N4CCN(C(=O)c5ccco5)CC4)n3n2)cc1
EC50: 4.78 µM

COc1ccc(-c2cc3nc(-c4ccco4)cc(N4CCN(C(=O)c5ccoc5)CC4)n3n2)cc1
EC50: 4.86 µM

COc1ccc(-c2[nH]nc3nc(N4CCN(C(=O)c5ccoc5)CC4)cc(C(F)(F)F)c23)cc1
EC50: inactive

COc1cc(OC)cc(-c2cc3nc(C)c(C)c(N4CCN(C(=O)c5ccoc5)CC4)n3n2)c1
EC50: 1.84 µM

Cc1nc2cc(-c3cccc(F)c3)nn2c(N2CCN(C(=O)c3ccco3)CC2)c1C
inhibition: inactive

COc1ccccc1-c1c(C)nn2c(N3CCN(C(=O)c4ccco4)CC3)cc(C)nc12
inhibition: inactive

Cc1cccc(-c2cc3nc(-c4ccco4)cc(N4CCN(C(=O)c5ccoc5)CC4)n3n2)c1
EC50: inactive

Cc1cc(N2CCN(C(=O)C3CCCO3)CC2)n2nc(-c3cccc(F)c3)cc2n1 (stereo not given)
EC50: inactive

Cc1c(-c2ccco2)nc2cc(-c3ccccc3)nn2c1N1CCN(C(=O)c2ccoc2)CC1
EC50: 6.48 µM

O=C(c1ccoc1)N1CCN(c2cc(-c3ccco3)nc3cc(-c4cccc(-c5ccco5)c4)nn23)CC1
EC50: 5.15 µM

COc1cccc(-c2cc3nc(C)c(C)c(N4CCN(C(=O)c5ccco5)CC4)n3n2)c1
EC50: 11.8 µM

O=C(c1ccco1)N1CCN(c2cc(-c3ccccc3)nc3ncnn23)CC1
inhibition: inactive

c1ccc(-c2cc3nc(-c4ccco4)cc(N4CCNCC4)n3n2)cc1
EC50: inactive

COc1cccc(-c2cc3nc(C)c(C(C)C)c(N4CCN(C(=O)c5ccoc5)CC4)n3n2)c1
EC50: 10.2 µM

O=C(c1ccsc1)N1CCN(c2cc(-c3ccco3)nc3cc(-c4ccccc4)nn23)CC1
EC50: 5.69 µM

O=C1CN(c2cc(-c3ccco3)nc3cc(-c4ccccc4)nn23)CCN1c1ccccc1
EC50: 6.61 µM

O=C(c1ccoc1)N1CCN(c2cc(-c3ccccc3F)nc3cc(-c4ccccc4)nn23)CC1
EC50: 10.5 µM

Cc1ccc(-c2cc(N3CCN(C(=O)c4ccoc4)CC3)n3nc(-c4ccccc4)cc3n2)o1
EC50: inactive

CC(=O)N1CCN(c2cc(-c3ccco3)nc3cc(-c4cccc(Cl)c4)nn23)CC1
EC50: 3.97 µM

CC(=O)N1CCN(c2c(C)c(C)nc3cc(-c4ccc(F)cc4)nn23)CC1
inhibition: inactive

Cc1occc1C(=O)N1CCN(c2cc(-c3ccco3)nc3cc(-c4ccccc4)nn23)CC1
EC50: 11.8 µM

COc1ccccc1-c1cc2nc(-c3ccco3)cc(N3CCN(C(=O)c4ccoc4)CC3)n2n1
EC50: 10.3 µM

CN(CCCN(C)c1cc(-c2ccco2)nc2cc(-c3ccccc3)nn12)C(=O)c1ccoc1
EC50: inactive

O=C(c1ccoc1)N1CCN(c2cc(-c3ccco3)nc3cc(-c4ccc(Cl)cc4)nn23)CC1
EC50: inactive

Cc1nc2cc(-c3ccc4c(c3)OCO4)nn2c(N2CCN(C(=O)c3ccoc3)CC2)c1C
EC50: 1.93 µM

Cc1ccc(-c2cc3nc(-c4ccco4)cc(N4CCN(C(=O)c5ccoc5)CC4)n3n2)cc1
EC50: inactive

COc1cccc(-c2cc3nc(C)c(C)c(N4CCN(C(=O)c5ccoc5)CC4)n3n2)c1
EC50: 12.8 µM

CC(C)(C)OC(=O)N1CCN(c2cc(-c3ccco3)nc3cc(-c4ccccc4)nn23)CC1
EC50: inactive

COc1cccc(-c2cc3nc(-c4ccccc4)c(C)c(N4CCN(C(=O)c5ccoc5)CC4)n3n2)c1
EC50: 4.77 µM

O=C(OCc1ccccc1)N1CCN(c2cc(-c3ccco3)nc3cc(-c4ccccc4)nn23)CC1
EC50: 3.03 µM

Cc1nn2c(N3CCN(C(=O)c4ccco4)CC3)cc(C(C)(C)C)nc2c1-c1ccc(Cl)cc1
inhibition: inactive

O=C(c1ccoc1)N1CCCN(c2cc(-c3ccco3)nc3cc(-c4ccccc4)nn23)C1
EC50: inactive

O=C(c1ccoc1)N1CCN(c2cc(-c3cccc(F)c3)nc3cc(-c4cccc(Cl)c4)nn23)CC1
EC50: 6.45 µM

Cc1nc2cc(-c3ccccc3)nn2c(N2CCN(C(=O)c3ccoc3)CC2)c1C
EC50: 2.19 µM

O=C(c1ccoc1)N1CCN(c2cc(-c3ccco3)nc3cc(-c4cccs4)nn23)CC1
EC50: 9.8 µM

O=C(C1CCCO1)N1CCN(c2c3c(nc4cc(-c5cccc(F)c5)nn24)CCCC3)CC1 (stereo not given)
EC50: inactive

COc1cccc(-c2cc3nc(C)c(C)c(N4CCN(Cc5ccco5)CC4)n3n2)c1
inhibition: inactive

COc1ccc(-c2cc3nc(C)c(C)c(N4CCN(C(=O)c5ccoc5)CC4)n3n2)cc1
EC50: 4.08 µM

CNCCCN(C)c1cc(-c2ccco2)nc2cc(-c3ccccc3)nn12
EC50: inactive

COc1cccc(-c2cc3nc(-c4cccc(C#N)c4)cc(N4CCN(C(=O)c5ccoc5)CC4)n3n2)c1
EC50: 2.34 µM

Cc1nc2cc(-c3ccncc3)nn2c(N2CCN(C(=O)c3ccoc3)CC2)c1C
EC50: inactive

O=C(c1ccoc1)N1CCN(c2cc(-c3ccco3)nc3cc(-c4ccccc4)nn23)CC1
EC50: 4.6 µM

COc1ccc(-c2cc3nc(-c4ccccc4)cc(N4CCN(C(=O)c5ccoc5)CC4)n3n2)cc1
EC50: 2.05 µM

COc1cccc(-c2cc(N3CCN(C(=O)c4ccoc4)CC3)n3nc(-c4cccc(OC)c4)cc3n2)c1
EC50: 3.54 µM

COc1ccc(-c2cc(N3CCN(C(=O)c4ccoc4)CC3)n3nc(-c4ccccc4)cc3n2)cc1
EC50: inactive

O=C(c1ccoc1)N1CCN(c2cc(-c3ccco3)nc3cc(-c4cccc(Cl)c4)nn23)CC1
EC50: inactive

O=C(c1coc2ccccc12)N1CCN(c2cc(-c3ccco3)nc3cc(-c4ccccc4)nn23)CC1
EC50: inactive

COc1cccc(-c2cc3nc(C)cc(N4CCN(C(=O)c5ccoc5)CC4)n3n2)c1
EC50: inactive
